Patent publication US7507739B2, “6-[(substituted)phenyl]triazolopyrimidines as anticancer agents” (Wyeth, priority 2003, dated 2009)
Marks after values point to notes of the source that are not given here.

Assays:
Assay type in all cases: in vivo, athymic mice
LOX Human Melanoma = experiment: Human tumor xenograft test, LOX; settings: for tumor growth inhibition (activity call): LOX melanoma; for T/C on day 0 / T/C on day 7 / T/C on day 13: LOX, days 1, 5, 9, 13
Experimental: (§1) The ability of compounds of this invention to inhibit tumor growth in animals is studied in the athymic mouse xenograft standard pharmacological test. Female nu/nu mice in an outbred albino background are obtained from Charles River Laboratories (Wilmington, Mass.). Animals are injected subcutaneously on the flank with the desired tumor cell suspension. Several days later, mice with tumors of approximately 150 mm^3 are selected from those injected (staged) and randomly distributed into groups of 5-10. The day of staging is called day 0. Compounds of the invention, usually formulated in saline (exceptions are noted in tables), are administered to animals by intravenous injection or oral gavage on various schedules starting on day 0 or 1, as noted in the tables. The control group in each experiment is dosed with vehicle on the same schedule. Tumor size is measured every 3-7 days with calipers in two orthogonal dimensions, and tumor volume is calculated from the formula volume=[(length×width^2)/2].
(§2) Tumor/Control (T/C) is obtained by dividing the mean tumor volume of the treated group by the mean tumor volume of the control group on each measurement day. A treatment dose is defined as active if it produced a statistically significant T/C of 0.50 or less. A p value≦0.05, determined by one-side Student's t-test, is required for statistical significance. A treatment dose is defined as toxic if more than 10% of the animals died from a compound-related toxicity.

[1] = tested on: U87-MG Human Glioblastoma; experiment: Human tumor xenograft test, U87-MG; settings: for T/C on day 0 / T/C on day 3 / T/C on day 7 / T/C on day 10 / T/C on day 13 / T/C on day 17: U87-MG, days 1, 5, 9
Experimental: as §1, §2

[2] = tested on: A549 Human Non-Small Cell Lung Carcinoma; experiment: Human tumor xenograft test, A549; settings: days 1, 5, 9, 13, 17, 21, 25, 29
Experimental: as §1, §2

[3] = tested on: LoVo Human Colon Carcinoma; experiment: Human tumor xenograft test, LoVo; settings: for T/C on day 0 / T/C on day 7 / T/C on day 14 / T/C on day 21 / T/C on day 28 / T/C on day 35: days 1, 7, 14
Experimental: as §1, §2

[4] = 1 mg/kg intravenously on days 1, 5, 9, and 13
[5] = 6 and 3 mg/kg intravenously on days 1, 5, 9, and 13

Row | SMILES | tumor growth inhibition (activity call) (LOX Human Melanoma; [4]) | tumor growth inhibition (activity call) (LOX Human Melanoma; [5]) | T/C on day 0 (LOX Human Melanoma; 1 mg/kg IV) | T/C on day 7 (LOX Human Melanoma; 1 mg/kg IV) | T/C on day 13 (LOX Human Melanoma; 1 mg/kg IV) | T/C on day 0 (LOX Human Melanoma; 3 mg/kg IV) | T/C on day 7 (LOX Human Melanoma; 3 mg/kg IV) | T/C on day 13 (LOX Human Melanoma; 3 mg/kg IV) | T/C on day 0 (LOX Human Melanoma; 6 mg/kg IV) | T/C on day 7 (LOX Human Melanoma; 6 mg/kg IV) | T/C on day 13 (LOX Human Melanoma; 6 mg/kg IV) | T/C on day 0 ([3]; 30 mg/kg PO) | T/C on day 7 ([3]; 30 mg/kg PO) | T/C on day 14 ([3]; 30 mg/kg PO) | T/C on day 21 ([3]; 30 mg/kg PO) | T/C on day 28 ([3]; 30 mg/kg PO) | T/C on day 35 ([3]; 30 mg/kg PO) | T/C on day 0 ([3]; 50 mg/kg PO) | T/C on day 7 ([3]; 50 mg/kg PO) | T/C on day 14 ([3]; 50 mg/kg PO) | other results
1 | C[C@H](Nc1c(-c2c(F)cc(OCCCN(C)C)cc2F)c(Cl)nc2ncnn12)C(F)(F)F.Cl [Example 1a, 5-chloro-6-{4-[3-(dimethylamino)propoxy]-2,6-difluorophenyl}-N-[(1S)-2,2,2-trifluoro-1-methylethyl][1,2,4]triazolo[1,5-a]pyrimidin-7-amine hydrogen chloride Salt] | not at 1 mg/kg | active | 1.00 | 0.80 | 1.02 | 1.00 | 0.13** | 0.17* | 1.00 | 0.12** | 0.07** | – | – | – | – | – | – | – | – | – | –
2 | CNCCCOc1cc(F)c(-c2c(Cl)nc3ncnn3c2NCC(F)(F)F)c(F)c1.Cl [Example 3a, 5-Chloro-6-{2,6-difluoro-4-[3-(methylamino)propoxy]phenyl}-N-(2,2,2-trifluoroethyl)[1,2,4]triazolo[1,5-a]pyrimidin-7-amine hydrogen chloride Salt] | not at 1 mg/kg | active | 1.00 | 0.77 | 0.85 | 1.00 | 0.34* | 0.38 | 1.00 | 0.22** | 0.07** | – | – | – | – | – | – | – | – | – | T/C on day 0 ([1]; 10 mg/kg PO): 0.99; T/C on day 3 ([1]; 10 mg/kg PO): 1.08; T/C on day 7 ([1]; 10 mg/kg PO): 0.85; T/C on day 10 ([1]; 10 mg/kg PO): 0.69**; T/C on day 13 ([1]; 10 mg/kg PO): 0.52**; T/C on day 17 ([1]; 10 mg/kg PO): 0.51**; T/C on day 0 ([1]; 20 mg/kg PO): 1.01; T/C on day 3 ([1]; 20 mg/kg PO): 0.90; T/C on day 7 ([1]; 20 mg/kg PO): 0.73; T/C on day 10 ([1]; 20 mg/kg PO): 0.63**; T/C on day 13 ([1]; 20 mg/kg PO): 0.42**; T/C on day 17 ([1]; 20 mg/kg PO): 0.39**; T/C on day 0 ([1]; 40 mg/kg PO): 1.02; T/C on day 3 ([1]; 40 mg/kg PO): 0.73; T/C on day 7 ([1]; 40 mg/kg PO): 0.65**; T/C on day 10 ([1]; 40 mg/kg PO): 0.48**; T/C on day 13 ([1]; 40 mg/kg PO): 0.30**; T/C on day 17 ([1]; 40 mg/kg PO): 0.20**; tumor growth inhibition (activity call) ([1]; U-87 MG, oral dosing, 40, 20, and 10 mg/kg): active
3 | CN(C)CCCOc1cc(F)c(-c2c(Cl)nc3ncnn3c2NCC(F)(F)F)c(F)c1.Cl [Example 4a, 5-Chloro-6-{4-[3-(dimethylamino)propoxy]-2,6-difluorophenyl}-N-(2,2,2-trifluoroethyl)[1,2,4]triazolo[1,5-a]pyrimidin-7-amine Hydrogen chloride Salt] | not at 1 mg/kg | active | 1.00 | 0.80 | 0.79 | 1.00 | 0.20** | 0.19** | 1.00 | 0.21** | 0.14** | – | – | – | – | – | – | – | – | – | T/C on day 0 ([2]; A549, 10 mg/kg IV): 0.98; T/C on day 7 ([2]; A549, 10 mg/kg IV): 0.81; T/C on day 14 ([2]; A549, 10 mg/kg IV): 0.74; T/C on day 21 ([2]; A549, 10 mg/kg IV): 0.68; T/C on day 27 ([2]; A549, 10 mg/kg IV): 0.80; T/C on day 35 ([2]; A549, 10 mg/kg IV): 0.79; T/C on day 0 ([2]; A549, 20 mg/kg IV): 0.99; T/C on day 7 ([2]; A549, 20 mg/kg IV): 0.86; T/C on day 14 ([2]; A549, 20 mg/kg IV): 0.80; T/C on day 21 ([2]; A549, 20 mg/kg IV): 0.72; T/C on day 27 ([2]; A549, 20 mg/kg IV): 0.78; T/C on day 35 ([2]; A549, 20 mg/kg IV): 0.77; T/C on day 0 ([2]; A549, 40 mg/kg IV): 0.97; T/C on day 7 ([2]; A549, 40 mg/kg IV): 0.71; T/C on day 14 ([2]; A549, 40 mg/kg IV): 0.53**; T/C on day 21 ([2]; A549, 40 mg/kg IV): 0.46**; T/C on day 27 ([2]; A549, 40 mg/kg IV): 0.52**; T/C on day 35 ([2]; A549, 40 mg/kg IV): 0.47**
4 | C[C@H](Nc1c(-c2c(F)cc(OCCCO)cc2F)c(Cl)nc2ncnn12)C(F)(F)F [Example 20, 3-[4-(5-Chloro-7-{[(1S)-2,2,2-trifluoro-1-methylethyl]amino}[1,2,4]triazolo[1,5-a]pyrimidin-6-yl)-3,5-difluorophenoxy]propan-1-ol] | – | – | – | – | – | – | – | – | – | – | – | 1.00 | 0.37* | 0.35** | 0.35 | 0.28 | 0.35 | 1.00 | 0.27** | 0.46** | T/C on day 21 ([3]; 50 mg/kg PO): 0.33**; T/C on day 28 ([3]; 50 mg/kg PO): 0.29**; T/C on day 35 ([3]; 50 mg/kg PO): 0.31*; tumor growth inhibition (activity call) ([3]; orally on days 1, 7 and 14 at 50 and 30 mg/kg): active
5 | CNCCCOc1cc(F)c(-c2c(Cl)nc3ncnn3c2C2CCCCCC2)c(F)c1.O=C(O)C(F)(F)F [Example 32, 3-[4-(5-Chloro-7-cycloheptyl[1,2,4]triazolo[1,5-a]pyrimidin-6-yl)-3,5-difluorophenoxy]-N-methylpropan-1-amine trifluoroacetic acid salt] | – | – | – | – | – | – | – | – | – | – | – | 1.00 | 0.55 | 0.68 | 0.35 | 0.43 | 0.53 | 1.00 | 0.41 | 0.44* | T/C on day 21 ([3]; 50 mg/kg PO): 0.27*; T/C on day 28 ([3]; 50 mg/kg PO): 0.31; T/C on day 35 ([3]; 50 mg/kg PO): 0.26; tumor growth inhibition (activity call) ([3]; orally on days 1, 7 and 14 at 50 mg/kg): active
